Where two headings read alike, the source gives them in different places. Some results are limits rather than exact numbers.

The subject of assay [1] is S. agalactiae NEM316 WT. The assay can be described thus: Minimal Antivirulent Concentration (MAC) assay, sensitization of bacteria to colistin. It counts as cell-based. The settings on record: S. agalactiae wt strain, in presence of colistin 32 μg/ml, overnight, no visible growth. An excerpt:
The readout of the assay is called Minimum antivirulent concentration (MAC) and represents the minimal dose of compound for which no visible bacterial growth is observed in the presence of colistin at a subinhibitory concentration. MAC assay is described in Method 3 hereinafter.
Method 3: Assay for Minimal Antivirulent Concentration (MAC) and Minimal Inhibitory Concentration (MIC): Determination of Compounds Activity for Sensitization of Bacteria to Cationic Peptide (Colistin)
The Gram positive bacteria S. agalactiae NEM316 WT are grown on tryptic soy agar (TSA) broth over-night at 37° C. with air enriched with 5% CO2. Ten to fifteen colonies isolated from over-night growth on agar are then added to 10 ml of TS media to produce a standard suspension of organisms. This pre-culture is incubated at 37° C. with constant shaking during two to three hours to reach the exponential phase. This suspension is diluted to obtain a final inoculum of 1E+04 CFU/ml. Viable counts are obtained by plating 10 to 1000-fold dilutions of the suspension on TSA.
According to our standardized conditions, the final volume in the well is 100 μl in a 96-well microplate. Compounds are tested in a range of 1 to 32 μg/mL. Each well contains 2 μl of compound diluted in 100% DMSO, 48 μl of TS (microplate without colistin) or 48 μl of colistin in TS (final concentration of colistin is 32 μg/ml for S. agalactiae), then […] (final inoculum of 1 E+04 CFU/ml). Final concentration of DMSO is 2%. Positive growth control wells for each organism are prepared with and without colistin and DMSO 2% final concentration. S. agalactiae NEM316 Δdlt is used in control wells to verify the effect of the colistin on a sensitive strain.
The microplates are then incubated overnight at 37° C. with 5% CO2. Visible bacterial growth is finally quantified by unaided eye.
The MAC of each compound is derived from the experiment in presence of colistin and is defined as the minimal concentration of compound for which no bacterial visible growth is observed.

In assay [2] the target is T1, DltA enzyme (Streptococcus agalactiae serotype III, UniProt Q8VM67).
T1 construct: His-tag (from pET100 vector) (N); made in house; host or cells: E. coli BL21 (DE3) Star
T1 sequence (Q8VM67 1-511): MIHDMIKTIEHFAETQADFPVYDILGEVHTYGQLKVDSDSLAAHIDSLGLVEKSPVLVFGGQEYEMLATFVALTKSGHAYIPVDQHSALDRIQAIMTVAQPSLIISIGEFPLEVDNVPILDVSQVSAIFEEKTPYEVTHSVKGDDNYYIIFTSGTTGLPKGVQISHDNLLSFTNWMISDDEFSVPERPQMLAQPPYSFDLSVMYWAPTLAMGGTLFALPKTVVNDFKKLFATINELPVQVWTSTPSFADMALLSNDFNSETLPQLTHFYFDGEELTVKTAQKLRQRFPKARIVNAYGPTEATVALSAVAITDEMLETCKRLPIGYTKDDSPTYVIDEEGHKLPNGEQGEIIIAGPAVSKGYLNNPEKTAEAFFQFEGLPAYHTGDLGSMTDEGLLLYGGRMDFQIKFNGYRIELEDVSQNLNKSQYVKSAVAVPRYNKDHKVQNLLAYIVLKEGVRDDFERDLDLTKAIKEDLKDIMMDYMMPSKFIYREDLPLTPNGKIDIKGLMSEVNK
The assay can be described thus: DltA HTS assays (luminescent / fluorescent), inhibition of DltA enzymatic activity in vitro. It counts as biochemical, S. agalactiae. Particulars: Table 1; DltA inhibition, HTS assays of method 1; read-out: IC50. An excerpt: The compounds effect on DltA enzyme has been based on the measure of the inhibition of DltA activity in vitro.
To this end, a recombinant protein Dlta was expressed and purified after cloning of the gene of S. agalatiae as described below:
Methods 1: DltA HTS Assays
The assay described below makes use of dithiothreitol (DTT) instead of DltC as reactive thiol in the catalyzed reaction. In fact, the inventors have shown that DTT, but also Coenzyme A and N-Acetylcysteamine are all thiols able to replace efficiently DltC. In addition, contrary to the prior art, radioactivity is not used: all the assays are based either on luminescent ATP detection, or on fluorescent AMP detection. They are easily amenable to miniaturized formats and fast readouts as required by HTS.
The assay buffer “AB” contains 50 mM Hepes pH8.0, 10 mM MgCl2, 50 mM KCl, 0.012% Triton-X100. The following components are added in a white polystyrene Costar plate up to a final volume of 30 μL: 3 μL DMSO, or inhibitor dissolved in DMSO and 27 μL DltA enzyme and DTT in AB. After 30 min of pre-incubation at room temperature, 30 μL of Substrates mix in AB are added in each well to a final volume of 60 μL. This reaction mixture is then composed of 10 nM DltA (produced in house from S. agalactiae), 0.5 mM D-Alanine (Sigma), 0.5 μM ATP (Sigma) and 1 mM DTT (Biochemika) in assay buffer. After 90 min of incubation at room temperature, 30 μL of the revelation mix are added to a final volume of 90 μL, including the following constituents at the respective final concentrations: 2 nM luciferase (Sigma), 30 μM D-luciferin (Sigma), 100 μM N-acetylcysteamine (Aldrich). Luminescence intensity is immediately measured on an Analyst-HT (Molecular Devices) and converted into inhibition percentages. For IC50 (Inhibitory Concentration 50%) determinations, the inhibitor is added at 6 to 10 different concentrations, and the related inhibitions are fitted to a classical langmuir equilibrium model using XLFIT (IDBS).
The assay buffer “AB” contains 50 mM Hepes pH8.0, 10 mM MgCl2, 50 mM KCl, 0.012% Triton-X100. The following components are added in a black polystyrene Costar plate up to a final volume of 50 μL: 5 μL DMSO, or inhibitor dissolved in DMSO and 45 μL DltA enzyme and DTT in AB. After 30 min of pre-incubation at room temperature, 50 μL of Substrates-revelation mix in AB are added in each well to a final volume of 100 μL. This reaction mixture is then composed of 5 nM DltA (produced in house from S. agalactiae), 0.5 mM D-Alanine (Sigma), 10 μM ATP (Sigma), 1 mM DTT (Biochemika), 10 nM Adenylate kinase (produced in house), 5 u/mL Pyruvate Kinase (Sigma), 50 μM phosphoenolpyruvate (Sigma), 5 u/mL Lactate deshydrogenase (Sigma) and 3 μM NADH (Sigma) in assay buffer. Fluorescence intensity of NADH (λex=360 nm, λem=520 nm) is immediately measured kinetically by a Fluostar Optima (BMG). Inhibition percentages are derived from fitted initial velocities. For IC50 determinations, the inhibitor is added at 6 to 10 different concentrations, and the related inhibitions are fitted to a classical langmuir equilibrium model using XLFIT (IDBS). FIG. 2 represents the data obtained using this method.
The capacity of compounds to inhibit DltA enzymatic activity was assessed using the DltA HTS assays described in method 1.

Assay [3] deals with S. agalactiae NEM316 WT. The assay can be described thus: Minimal Inhibitory Concentration (MIC) assay, absence of colistin. It counts as cell-based. Particulars: Streptococcus agalactiae, NEM316WT.
Assay [4] deals with S. agalactiae strain NEM316. The assay can be described thus: Experimental model of systemic infection in mice, organ bacteraemia at 48 h. It counts as in vivo. Particulars: BALB/c mice, i.v. infection, compound intraperitoneal immediately after infection, spleen bacteraemia 48 h. The protocol:
The effect of DltA inhibitors on the bacteria during an infection was assessed by injecting the molecules at different doses in group of mice that have received an infective dose of bacteria.
Description of Experimental Models Used to Assess the Efficacy of Inhibitors In Vivo:
Briefly, in vivo studies were performed using 4-5-week-old female BALB/c@Rj nice. S. agalactiae strain NEM316 bacteria were grown to exponential phase in broth culture. 200 μl of a bacterial suspension of 3.10^7 CFU/ml were administered by intravenous injection to groups of six mice (6.10^6 CFU/mouse). Exact inoculums counts were determined by plating 10-fold dilutions of the suspension on TH agar plates immediately after inoculation.
The compounds to be assessed are dissolved and diluted to obtain different concentration in a solution containing solutol; and 400 μl of each compound solution is injected intraperinonaly immediately after infection of the mouse. […]
The antibacterial effect obtained with different concentrations of compounds is measured by the level of bacteraemia observed at 48 H.
The graphs represent the average value of the organ bacteremia that is determined by the number of UFC/mg of organs (spleen) at 48 h post infection, obtained for each group of mice that have received different concentration of compounds (expressed in mg/kg). […]

Assay [5] concerns S. agalactiae strain NEM316. The assay can be described thus: Colistin activity on wild type S. agalactiae. It counts as cell-based. The source says: (§1) The peptide used was colistin which mimicks the effect of antibacterial cationic peptide of innate immunity. In common with other polymixins, colistin is rapidly bactericidal and exerts its effect by acting as a cationic detergent, causing disruption of the integrity of the bacterial cell membrane, with leakage of intracellular contents and cell death.

In assay [6] the test system is dltA defective mutant of S. agalactiae. The experiment in a line: Colistin activity on dltA defective mutant. It counts as cell-based.
Source text: as §1

The test system of assay [7] is S. aureus strain 54.316. The assay can be described thus: Colistin activity on S. aureus. It counts as cell-based.
Source text: as §1

The mark [8] stands for this setting: S. agalactiae wt strain, absence of colistin, overnight, no visible growth, read-out: MIC SAG wt.

For `OCCCNc1nc2cc(C(F)(F)F)ccc2n2c(-c3cccc(CO)c3)cnc12` [Example 16, 3-({1-[3-(hydroxymethyl)phenyl]-7-(trifluoromethyl)imidazo[1,2-a]quinoxalin-4-yl}amino)propan-1-ol], the “MAC” value in assay [1] amounted to 8 µg/mL. Also, the IC50 in assay [2] came out at 520 nM. Further, the MIC in assay [3] (setting [8]) is > 32 µg/mL.
Regarding `OCCCNc1nc2cc(C(F)(F)F)ccc2n2c(-c3ccn[nH]3)cnc12` [Example 19, 3-{[1-(1H-pyrazol-5-yl)-7-(trifluoromethyl)imidazo[1,2-a]quinoxalin-4-yl]amino}propan-1-ol], the “MAC” value in assay [1] stood at 2 µg/mL. In assay [4], the effective concentration came to 10 mg/kg. The IC50 in assay [2] turned out to be 9 nM. The MIC in assay [3] (setting [8]) is > 32 µg/mL.
As to `OCCCNc1nc2cc(C(F)(F)F)ccc2n2c(-c3cnn[nH]3)cnc12` [Example 35, 3-{[1-(1H-1,2,3-triazol-5-yl)-7-(trifluoromethyl)imidazo[1,2-a]quinoxalin-4-yl]amino}propan-1-ol], in assay [1], the “MAC” value is 2 µg/mL. For the same compound, the IC50 in assay [2] was found to be 270 nM. Further, the MIC in assay [3] (read-out: MIC SAG wt (μg/ml)) was > 32 µg/mL.
With `CC(C)(C)c1cc(-c2cnc3c(NCCCO)nc4cc(C(F)(F)F)ccc4n23)[nH]n1` [Example 36, 3-({1-[3-tert-butyl-1H-pyrazol-5-yl]-7-(trifluoromethyl)imidazo[1,2-a]quinoxalin-4-yl}amino)propan-1-ol], in assay [1], the “MAC” value came out at 4 µg/mL. In addition, the IC50 in assay [2] came to 49 nM. The MIC in assay [3] (setting [8]) is > 32 µg/mL.
The like results for `Cc1cc(-c2cnc3c(NCCCO)nc4cc(C(F)(F)F)ccc4n23)[nH]n1` [Example 39, 3-({1-[3-methyl-1H-pyrazol-5-yl]-7-(trifluoromethyl)imidazo[1,2-a]quinoxalin-4-yl}amino)propan-1-ol] were, in that order, 8 µg/mL, 13.5 nM and > 32 µg/mL.
As for `CCOC(=O)c1cc(-c2cnc3c(NCCCO)nc4cc(C(F)(F)F)ccc4n23)[nH]n1` [Example 47, 5-[4-(3-Hydroxy-propylamino)-7-trifluoromethyl-imidazo[1,2-a]quinoxalin-1-yl]-1H-pyrazole-3-carboxylic acid ethyl ester], the “MAC” value in assay [1] was 8 µg/mL. For the same compound, the IC50 in assay [2] came to 35 nM. Also, in assay [3] (setting [8]), the MIC is > 32 µg/mL.
The corresponding values for `CNC(=O)c1cc(-c2cnc3c(NCCCO)nc4cc(C(F)(F)F)ccc4n23)[nH]n1` [Example 50, 5-{4-[(3-hydroxypropyl)amino]-7-(trifluoromethyl)imidazo[1,2-a]quinoxalin-1-yl}-N-methyl-1H-pyrazole-3-carboxamide] are 8 µg/mL, 38 nM and > 32 µg/mL.
The like results for `OCCCNc1nc2cc(OC(F)(F)F)ccc2n2c(-c3ccn[nH]3)cnc12` [Example 51, 3-{[1-(1H-pyrazol-5-yl)-7-(trifluoromethoxy)imidazo[1,2-a]quinoxalin-4-yl]amino}propan-1-ol] were, in that order, 2 µg/mL, 9 nM and > 32 µg/mL.
As to colistin, the MIC in assay [5] (S. agalactiae strain NEM316 wild type) and in assay [7] was ≥ 1024 µg/mL throughout. Further, the “effect on the wild type strain growth” value in assay [5] (colistin 32 μg/ml, S. agalactiae wild type) is “without effect”. The “dose that can inhibit totally the growth” value in assay [6] turned out to be 32 µg/mL.

The values are drawn from US8513250B2 (Laboratoire Biodim, priority 2007, dated 2013).
